Values joined by “and” are separate entries in the source; they are usually repeats but may differ in a detail not shown here. Identical values can stand only once.
Tests used:
[1] = system: brain function development of infants; test: Spearman correlation of NAD-related substance concentration in 1-month breast milk with ASQ-3 developmental scores at 24 months; type: in vivo, human; details: for Correlation with concentration, r (Spearman): ASQ-3 at 24 months, 1-month breast milk; for Correlation of concentration in breast milk with developmental scores (in words): p<0.05
Protocol: (§1) The method was specifically as follows.
Concentrations of NAD-related substances in 1-month breast milk ingested by 150 infants of 1 to 6 months old, who were fully breastfed, were determined by LC-MS/MS.
Development of the infants was assessed at the age of 24 months using ASQ (registered trademark)-3 (Japanese version of ASQ (registered trademark)-3 infant developmental screening questionnaires, Igaku Shoin, 2021). The relationship between the amount of each NAD-related substance ingested by the infants and their development was evaluated by using Spearman's rank-order correlation coefficient.

[2] = system: brain function development of infants; test: Between-group comparison (Mann-Whitney U) of ASQ-3 developmental scores, high NMN vs low NMN breast milk; type: in vivo, human
Protocol: as §1
By using the data on the contents of NMN in breast milk and the developmental scores of the infants shown in Method 1, the subject infants were divided into two groups according to the concentration of NMN in breast milk, and the groups were compared according to Mann-Whitney's U-test. In this study, the boundary concentration of the two groups was set to be 1.922 μg/mL (mean NMN concentration in 1-month breast milk−1×standard deviation) or 3.089 μg/mL (mean NMN concentration in 1-month breast milk). That is, the group comparison was performed between two groups of NMN concentrations in the consumed breast milk of […] (high NMN group) and <1.922 μg/mL (low NMN group), or two groups of the same of 3.089 μg/mL (high NMN group) and <3.089 μg/mL (low NMN group).

aged mice = details: cited from earlier work
mouse = details: aging; cited from earlier work
old rats = details: each alone or in combination; cited from earlier work
[3] = system: mouse model of drug-induced depression; details: cited from earlier work
piglets = details: cited from earlier work
mice = details: cited from earlier work

In the case of O=C(O)c1cccnc1 [NA, nicotinic acid], the “Correlation with concentration, r (Spearman)” value (shortened to “Correlation with concentration”) ([1]; Communication, 150 infants) is reported as 0.025, the “Correlation with concentration” value ([1]; Gross motor) is reported as 0.095 and the “Correlation with concentration” value ([1]; Problem solving) is reported as 0.147. For the same molecule, the “Correlation with concentration” value ([1]; Social-individual) was 0.154 and the “Correlation of concentration in breast milk with developmental scores (in words)” value (from here on “Correlation of concentration”) ([1]; gross motor) was “positive correlation”.

In the case of NC(=O)c1ccc[n+]([C@@H]2O[C@H](COP(=O)([O-])OP(=O)(O)OC[C@H]3O[C@@H](n4cnc5c(N)ncnc54)[C@H](O)[C@@H]3O)[C@@H](O)[C@H]2O)c1 [NAD, nicotinamide adenine dinucleotide], the “Correlation with concentration” value ([1]; Fine motor) is reported as 0.025, the “Correlation with concentration” value ([1]; Gross motor) is reported as 0.077 and the “Correlation with concentration” value ([1]; Problem solving) is reported as 0.056. The “Correlation with concentration” value ([1]; Social-individual) was 0.048.

With NC(=O)c1ccc[n+]([C@@H]2O[C@H](COP(=O)([O-])O)[C@@H](O)[C@H]2O)c1 [NMN, nicotinamide mononucleotide] the “Correlation with concentration” value ([1]; Communication, 150 infants) was 0.199, the “Correlation with concentration” value ([1]; Fine motor) was 0.208 and the “Correlation with concentration” value ([1]; Gross motor) was 0.186. The “Correlation with concentration” value ([1]; Problem solving) was 0.288, the “Correlation with concentration” value ([1]; Social-individual) was 0.269 and 0.259 and the “Correlation of concentration” value ([1]; all five developmental areas at 24 months) was “significant positive correlation”. The “Effectiveness in promoting brain development in infants among the NAD-related substances” value ([1]; in vivo) was “most effective”, the “Correlation between amount in breast milk ingested from 1 to 6 months of age and development by ASQ-3 24-month (in words)” value ([1]; overall) was “high correlation” and the “Development of the infants, high NMN group vs low NMN group” value (“Development … vs low NMN group” for short) ([2]; fine motor, boundary value 3.089 μg/mL, FIG. 2) was “significantly accelerated”. The “NMN level in the composition at which infants' brain functions are significantly enhanced” value ([2]; in vivo) was at least 1.922 µg/mL, the “Development … vs low NMN group” value ([2]; personal-social, boundary value 1.922 μg/mL, FIG. 1) was “significantly accelerated” and the “Development … vs low NMN group” value ([2]; personal-social, boundary value 3.089 μg/mL, FIG. 2) was “significantly accelerated”. The “Development … vs low NMN group” value ([2]; problem solving, boundary value 3.089 μg/mL, FIG. 2) was “significantly accelerated”, the Neurovascular coupling (aged mice) was “may promote neurovascular coupling” and the “Hypersensitive behaviors to fear and anxiety” value (mouse) was “may alleviate hypersensitive behaviors to fear and anxiety”. The “Learning and memory abilities” value (old rats) was “improves their learning and memory abilities” and the Drug-induced depression-like symptoms [3] was “improves drug-induced depression-like symptoms”.

In the case of NC(=O)c1ccc[n+]([C@@H]2O[C@H](CO)[C@@H](O)[C@H]2O)c1 [NR, nicotinamide riboside], the “Correlation with concentration” value ([1]; Communication, 150 infants) is reported as 0.017, the “Correlation with concentration” value ([1]; Fine motor) is reported as 0.085 and the “Correlation with concentration” value ([1]; Gross motor) is reported as 0.082. For the same molecule, the “Correlation with concentration” value ([1]; Social-individual) was 0.117, the “Correlation of concentration” value ([1]; problem solving) was “positive correlation” and the “Short-chain fatty acids in feces” value (piglets) was “increased levels”. For the same molecule, the “BDNF level in breast milk” value (mice; NR supplementation of mothers) was “twice as high”, the “Fat and brain size of offspring at weaning” value (mice; mice raised by supplemented mothers) was “lower fat and larger brains” and the “Milk secretion and production of BDNF” value (mice; mouse, in vivo) was “stimulates milk secretion”.

For COc1ccc2[nH]cc(CCNC(C)=O)c2c1 [melatonin], the “Learning and memory abilities” value (old rats) is listed as “improves their learning and memory abilities”.

— patent US20260166068A1, “COMPOSITION FOR PROMOTING DEVELOPMENT OF BRAIN FUNCTIONS IN CHILDREN” (Meiji Co., Ltd., priority 2022, published 2026)
